Experimental findings from US5322944A, “Process for the synthesis of enantiomers of 3-aminochroman compounds” (Adir et Compagnie, priority 1991, dated 1994) are described below.

One experiment has as its target T1, 5HT1 A receptors (Homo sapiens, UniProt P08908).
T1 sequence (P08908 1-422): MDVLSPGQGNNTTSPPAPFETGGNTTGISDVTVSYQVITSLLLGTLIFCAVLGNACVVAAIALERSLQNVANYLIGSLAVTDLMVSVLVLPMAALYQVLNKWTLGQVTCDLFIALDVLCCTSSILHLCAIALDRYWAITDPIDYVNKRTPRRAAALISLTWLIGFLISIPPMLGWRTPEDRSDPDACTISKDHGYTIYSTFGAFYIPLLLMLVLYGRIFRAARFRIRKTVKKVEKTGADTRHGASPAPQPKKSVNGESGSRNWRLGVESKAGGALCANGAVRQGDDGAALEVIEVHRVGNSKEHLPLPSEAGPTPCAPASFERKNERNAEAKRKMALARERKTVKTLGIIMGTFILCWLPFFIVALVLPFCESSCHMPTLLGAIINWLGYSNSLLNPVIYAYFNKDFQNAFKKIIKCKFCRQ
The experiment can be described thus: conventional binding techniques, 5HT1 A receptors. The following applies: for Ki: affinity expressed as K 0.5 (Ki) for the 5HT1 A receptors, conventional binding techniques, called K 0.5 for the (+) isomer, Ki for the (-) isomer; for selectivity (5HT1 A versus D2 receptors): ratio of D2 to 5HT1 A affinity constants. An excerpt: (§1) If conventional binding techniques are used, the affinity of the (+) isomer of the compound of formula (II), expressed as K 0.5, is 2×10^-10for the 5HT1 A receptors and 2×10^-8 for the D2 receptors, which is equivalent to a selectivity of the order of 100.

Another experiment has as its target D2 receptors (Homo sapiens, UniProt P14416). The experiment can be described thus: conventional binding techniques, D2 receptors. The following applies: called K 0.5 for the (+) isomer, read-out: affinity expressed as K 0.5 (Ki) for the D2 receptors.
Source text: as §1

Sequence of D2 receptors (P14416 whole entry): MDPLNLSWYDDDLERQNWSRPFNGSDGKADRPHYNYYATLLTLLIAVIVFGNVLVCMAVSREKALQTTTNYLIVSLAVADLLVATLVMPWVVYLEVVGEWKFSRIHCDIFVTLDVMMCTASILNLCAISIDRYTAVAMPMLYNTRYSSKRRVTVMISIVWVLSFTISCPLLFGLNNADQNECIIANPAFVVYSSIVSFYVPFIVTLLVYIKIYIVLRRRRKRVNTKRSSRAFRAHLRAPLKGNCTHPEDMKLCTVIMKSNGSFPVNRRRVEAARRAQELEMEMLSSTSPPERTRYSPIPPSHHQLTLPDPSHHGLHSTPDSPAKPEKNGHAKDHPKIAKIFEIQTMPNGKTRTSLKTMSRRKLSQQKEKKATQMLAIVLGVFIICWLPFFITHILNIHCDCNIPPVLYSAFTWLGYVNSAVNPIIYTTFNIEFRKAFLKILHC

Turning to `CCCN(CCCCN1C(=O)CC2(CCCC2)CC1=O)C1COc2cccc(OC)c2C1` (single isomer, unassigned; (+)) [(+) isomer of the compound of formula (II)], on 5HT1 A receptors ((+) isomer compared with (-) isomer), the “affinity for the 5HT1 A receptors relative to that of the (-) isomer” value is recorded as “about 10 times”. The “specificity relative to the (-) isomer” value at 5HT1 A receptors ((+) isomer compared with (-) isomer, 5HT1 A versus D2) is 20 times. In addition, on 5HT1 A receptors, the inhibitory constant (Ki) was found to be 0.2 nM and the “selectivity (5HT1 A versus D2 receptors)” value was approximately 100. The Ki at D2 receptors was found to be 20 nM.
In the case of `CCCN(CCCCN1C(=O)CC2(CCCC2)CC1=O)C1COc2cccc(OC)c2C1` (single isomer, unassigned; (-)) [(-) isomer], on 5HT1 A receptors, the Ki stood at 2 nM and the “selectivity (5HT1 A versus D2 receptors)” value is reported as approximately 5. Also, the Ki at D2 receptors was found to be 10 nM.
